Reference: US8168667B2 (Galapagos NV, priority 2006, dated 2012)
Like-named read-outs stand apart in the source and are kept apart here.

Columns and labels:
[1] = system: castrated C57/B16J male mice; assay: Model of osteoporosis in male mice (trabecular BMD of tibia); type: in vivo; conditions: Mus musculus, sc, 672 h, ORX mice, 30 mg/kg subcutaneously daily, day 1 to 28, ORX = 0%, SHAM = 100%, read-out: efficacy in protecting mineral bone density
Procedure: C57/B16J male mice aged 12 weeks and weighing approximately 20-25 g (Charles River, Les Oncins, FRANCE) were operated on as described above with regard to the rats. Castration mimicked the bone loss caused by androgen deficit. The aim of the study is to evaluate the capacity of the compounds to preserve and/or increase the bone mass. This is evaluated by measuring the bone mineral density (BMD). This model has previously been documented by Sims et al. 2003 J. Clin. Invest. 111(9):1319-27.
The animals were separated randomly into various groups and were kept in an environment at 22±2° C. with an alternating day/night cycle of 12 hours and ad libitum access to food and drink.
The tested compounds were administered from post-surgery day 1 and until day 28 preceding sacrifice (day 29). The mice were treated daily under the conditions defined below: • 1. SHAM control group: Vehicle (10/90 ethanol/corn oil mixture) administered subcutaneously. • 2. ORX control group: Vehicle (10/90 ethanol/corn oil mixture) administered subcutaneously. • 3. Treated ORX group: The tested compounds were administered individually subcutaneously in the vehicle described above, in a dose of 30 mg/kg.
During necropsy, the mice were first weighed then decapitated. The two hindlimbs were then carefully disarticulated at the femoral neck. The right hindlimb was frozen at −20° C. Densitometric quantitative analysis was performed on the trabecular portion of the tibia proximal metaphysis using a tomo densitometer (Stratec SA+, Hologic, Norland).
The average of the trabecular BMD of the mice in the ORX control group was defined as 0%. The average of the trabecular BMD of the mice in the SHAM control group was defined as 100%. The efficacy of each product as a percentage was calculated using the formula: (BMDtreated−BMDORX)/(BMDSHAM−BMDORX)×100
A subsequent ANOVA test was used for statistical analysis to identify the differences between groups.

[2] = system: castrated immature young rats; assay: Adapted model of Hershberger's test (levator ani and ventral prostate weight); type: in vivo, Sprague Dawley rats; conditions: Rattus norvegicus, po, 96 h
Procedure: The selective modulating activity of the androgen receptor was tested in a model of castrated immature young rats. This model, which is widely recognised for evaluating the anabolic effects of androgen compounds on the muscles and on the genitalia, has been described by Hershberger et al. 1953 Proc. Soc. Expt. Biol. Med. 83:175.
The method is based on the measurement of the well-known effects of androgens on the growth of the muscles and the accessory male sex organs in animals, and also in men. The consequences of castration appear in the form of a rapid involution and atrophy of the prostate and the seminal vesicles and of the anus-lifting muscle (levator ani). This effect may be completely compensated by an exogeneous administration of androgen, in particular of testosterone. The model is thus used to determine the capacity of the tested molecules to maintain the weight of the accessory sex and muscle organs in immature castrated rats, and therefore their androgenic efficacy.
Immature young Sprague Dawley rats (4 to 5 weeks old) weighing approximately 140-160 g (Charles River, Les Oncins, FRANCE) were distributed randomly in various groups and were kept in an environment at 22±2° C. with an alternating day/night cycle of 12 hours and ad libitum access to food and drink.
On day 0, that is, seven days before commencement of the first treatment, the rats were weighed individually then anaesthetised with an intraperitoneal dose of Ketamine/xylazine (85/15 mg/kg, approximately 2 ml/kg). Each animal was then placed on a sterile field and the abdomen and the scrotum were disinfected with Betadine and 70% alcohol. In the case of the orchidectomised control animals (ORX), the testicles were removed via an incision in the middle of the scrotum. A sterile suture was then made to ligature the supra-testicular portion of the tissue prior to surgical section of each testicle. The groups of animals to be treated by the tested compounds were operated on in an identical manner. In the case of the intact control animals (SHAM), the testicles were similarly extracted and reintroduced delicately to their original location. The site of surgical intervention was then sutured using sterile suture thread, and the site was disinfected again by application of Betadine. Each animal was then kept under a sterile pad until it awoke, before being returned to its cage. The animals were kept in an environment at 22±2° C. with an alternating day/night cycle of 12 hours and ad libitum access to food and drink. The animals were treated with the molecules to be tested from post-surgery day 7 and until day 10 preceding sacrifice (day 11).
The rats were split into groups and treated daily from day 7 to day 10 under the conditions defined below: • 1. SHAM control group: Vehicle (0.5% aqueous methyl cellulose) administered per os. • 2. ORX control group: Vehicle (0.5% aqueous methyl cellulose) administered per os. • 3. Treated ORX group: The tested compounds were administered individually per os in suspension in the vehicle described above, in a dose of 30 mg/kg.
After treatment for 4 successive days, the animals were decapitated using a guillotine. The levator ani and the ventral prostate were removed and weighed individually. For comparing inter-experimental data, the weight of each organ was standardised and expressed in milligrammes per 100 g of the weight of the animal (W). For each organ, the average of the standardised weights of the ORX control group was fixed by definition at 0% and the average of the standardised weights of the SHAM control group was fixed by definition at 100%. The efficacy of each product was expressed as a percentage and calculated using the following formula: (Wtreated−WORX)/(WSHAM−WORX)×100 A subsequent ANOVA test was used for statistical analysis to identify the differences between groups.

[3] = read-out: anabolic protection efficacy with regard to levator ani
[4] = read-out: androgenic efficacy with regard to the prostate
[5] = ORX rats, 30 mg/kg per os, 4 successive days, ORX = 0%, SHAM = 100%, read-out: anabolic protection efficacy with regard to levator ani
[6] = ORX rats, 30 mg/kg per os, 4 successive days, ventral prostate, ORX = 0%, SHAM = 100%, read-out: androgenic efficacy with regard to the prostate

| SMILES | melting point | inhibition in vivo at 30 mg/kg [1] | inhibition in vivo at 30 mg/kg [2, 3] | inhibition in vivo at 30 mg/kg [2, 4] | inhibition in vivo at 30 mg/kg [2, 5] | inhibition in vivo at 30 mg/kg [2, 6] |
| --- | --- | --- | --- | --- | --- | --- |
| CC#CCN1C(=O)N(c2ccc(C#N)c(C(F)(F)F)c2)C(=O)C1(C)c1ccc(O)cc1 (stereo not drawn) [Example 220, 4-[3-(2-butynyl)-4-(4-hydroxyphenyl)-4-methyl-2,5-dioxoimidazolidin-1-yl]-2-trifluoromethylbenzonitrile] | 172 °C | 40 to 130% | 50 to 140% | 5 to 70% | – | – |
| C#CCN1C(=O)N(c2ccc(C#N)c(C(F)(F)F)c2)C(=O)C1c1ccc(O)cc1 (stereo not drawn) [Example 4, 4-[2,5-dioxo-4-(4-hydroxyphenyl)-3-(2-propynyl)imidazolidin-1-yl]-2-trifluoromethylbenzonitrile] | 195 °C | 40 to 130% | 50 to 140% | 5 to 70% | – | – |
| C#CCN1C(=O)N(c2ccc(C#N)c(C(F)(F)F)c2)C(=O)C1(C)c1ccc(O)cc1 (stereo not drawn) [Example 6, 4-[2,5-dioxo-4-(4-hydroxyphenyl)-4-methyl-3-(2-propynyl)imidazolidin-1-yl]-2-trifluoromethylbenzonitrile] | – | 40 to 130% | 50 to 140% | 5 to 70% | – | – |
| C=CCN1C(=O)N(c2ccc(Cl)c(Cl)c2)C(=O)C1c1ccc(O)cc1 (stereo not drawn) [Example 3, 1-(3,4-dichlorophenyl)-4-(4-hydroxyphenyl)-3-(2-propenyl)imidazolidine-2,5-dione] | – | 40 to 130% | – | – | 50 to 140% | 5 to 70% |
| CN1C(=O)N(c2ccc(Cl)c(Cl)c2)C(=O)C1c1ccc(O)cc1 (stereo not drawn) [Example 1, 1-(3,4-dichlorophenyl)-4-(4-hydroxyphenyl)-3-methylimidazolidine-2,5-dione] | 200 °C | 40 to 130% | – | – | 50 to 140% | 5 to 70% |
| CN1C(=O)N(c2ccc(C#N)c(C(F)(F)F)c2)C(=O)C1(C)c1ccc(O)cc1 (stereo not drawn) [Example 5, 4-[3,4-dimethyl-2,5-dioxo-4-(4-hydroxyphenyl)imidazolidin-1-yl]-2-trifluoromethylbenzonitrile] | – | 40 to 130% | 50 to 140% | 5 to 70% | – | – |
| CN1C(=O)N(c2ccc(C#N)c(C(F)(F)F)c2)C(=O)[C@@]1(C)c1ccc(O)cc1 [Example 155, (R)-4-[3,4-dimethyl-2,5-dioxo-4-(4-hydroxyphenyl)imidazolidin-1-yl]-2-trifluoromethylbenzonitrile] | – | 40 to 130% | 50 to 140% | 5 to 70% | – | – |
